The nature of this data set: method code SF, from Hansch, C. & Leo, A. (1987). Log P database [Dataset]. Pomona College Medicinal Chemistry Project.

Each structure is given as a SMILES string. Non-standard residues stand in square brackets, D forms with d. Residues, ends and D or L forms follow the SMILES beside them. ξ: configuration not given here. *: point of attachment. ξF = NC(Cc1ccccc1)C(=O)O; Cbz = O=C(OCc1ccccc1)*

On to `NC1=NC(C(F)(F)F)(C(F)(F)F)NC1(C(F)(F)F)C(F)(F)F`, for which the log partition coefficient (logP) turned out to be 3.35.

As for `CCCNP(=O)(OC)Oc1cc(Cl)c(Cl)cc1Cl` (stereo not given), the lipophilicity (logP) turned out to be 3.7.

Regarding `O=c1c2ccccc2sc2ccccc12`, the logP came to 3.99.

Consider `Cc1ccccc1/C=N/O`, for which the logP is 2.53.

In turn, `CCCN(CCC)/N=C/c1c2c(O)c3c(O)c(C)c4c(c3c1O)C(=O)C(C)(O/C=C\C(OC)C(C)C(OC(C)=O)C(C)C(O)C(C)C(O)C(C)/C=C\C=C(C)C(=O)N2)O4` (stereo not given) displayed a log partition coefficient (logP) of 3.83.

`CN(C)c1ccc(N=C2C=CC(=O)C=C2)cc1` came in with a lipophilicity (logP) of 2.02.

With `CN(C)CC(CN1c2ccccc2Sc2ccccc21)N(C)C` (stereo not given), the log partition coefficient (logP) was 4.76.

For `CCCCCCCCN(CCCCCCCC)N=Cc1c2c(O)c3c(O)c(C)c4c(c3c1O)C(=O)C(C)(O/C=C\C(OC)C(C)C(OC(C)=O)C(C)C(O)C(C)C(O)C(C)/C=C\C=C(\C)C(=O)N2)O4` (stereo not given), the lipophilicity (logP) turned out to be 3.6.

`O=S1(=O)NC(c2ccccc2)=Nc2ccccc21`: the logP was determined as 1.78.

Turning to `c1ccc2c(c1)CCC2`, the logP stood at 3.33.

`O=C1OC2(CCCC2)c2ccccc21`: the lipophilicity (logP) stood at 2.56.

`CCC(C)NC(=O)C=C(Br)c1ccc(Cl)cc1` (stereo not given) had a log partition coefficient (logP) of 3.9.

Take `OCC(O)COc1ccccc1` (stereo not given): the log partition coefficient (logP) was 0.7.

`NC(=O)c1cccc(O)c1` had a logP of 0.39.

`CO/N=C(/C(=O)N[C@@H]1C(=O)N2C(C(=O)OC(C)OC(C)=O)=C(COC(N)=O)CS[C@@H]12)c1ccco1` (stereo not given in full): the logD (pH 7.2) turned out to be 0.89.

For the molecule `Cn1cnc2ccccc2c1=O`, the logP is 0.69.

The molecule `CCOC(=O)C(=Cc1cccc(OC)c1OC)C(C)=O` had a logP of 2.21.

Take `OC(c1ccccc1)c1ccccn1` (stereo not given): the logD (pH 8.0) was 1.52.

As for `O=Nc1ccc(O)c2ccccc12`, the lipophilicity (logP) came to 2.27.

Take `OC(c1ccccc1)(C(F)(F)F)C(F)(F)F`: the logP was 3.41.

In turn, `O=C1C=CC(=NBr)C=C1` showed a log partition coefficient (logP) of 1.12.

In turn, `O=C[C@H](O)[C@@H](O)[C@H](O)[C@H](O)CO` had a log distribution coefficient (logD) (pH 7.5) of -1.88.

Consider `O=C(c1ccccc1)C(F)(F)F`, for which the logP amounted to 2.15.

`CCCCC(=O)Nc1ccccc1` had a lipophilicity (logP) of 2.61.

The molecule `Clc1ccc2[nH]c(CCCCCCc3nc4cc(Cl)ccc4[nH]3)nc2c1` gave a logP of 1.38.

For `Cc1c(NCC(C)C)c(=O)n(-c2ccccc2)c(=O)n1C`, for the setting “pH 7.4”, the logD is 1.48.

Molecule `O=C(Nc1ccc(Cl)c(Cl)c1)C1CC1` gave a log partition coefficient (logP) of 3.83.

`CNC(=O)Oc1cc(C)c(C)cc1C` yielded a lipophilicity (logP) of 2.52.

In the case of `CCCCC1CC(C(=O)NC(C(C)Cl)C2OC(SC)C(O)C(O)C2O)N(CC)C1` (stereo not given), the pH-dependent lipophilicity (logD) (pH 12.0) amounted to 3.21.

Take `COc1ccc2[nH]c(CC(O)c3nc4cc(OC)ccc4[nH]3)nc2c1` (stereo not given): the logP was determined as 0.76.

Molecule `CC(C)CCO[N+](=O)[O-]` returned a log partition coefficient (logP) of 2.84.

Turning to `COc1ccccc1C=CC(=O)OCCOc1ccc(C=O)cc1OC`, the log partition coefficient (logP) was 3.65.

The molecule `O=C(O)C(c1ccccc1)c1ccccc1` showed a logD (pH 1.0) of 3.09.

In turn, `CC(=O)OC1OC(C)C(OC(C)=O)C(OC(C)=O)C1NC(=O)N(CCCl)N=O` (stereo not given) gave a log partition coefficient (logP) of 1.32.

`COc1ccc2c(=O)c(C)c(C(C)C)oc2c1` showed a lipophilicity (logP) of 3.39.

Molecule `NC(=O)CBr` returned a log partition coefficient (logP) of -0.52.

Regarding `Cc1oc2cc(OCC#N)ccc2c(=O)c1C`, the logP worked out at 1.96.

In turn, `CC(=O)OCC1=C(C(=O)O)N2C(=O)C(NC(=O)C(O)c3ccccc3)C2SC1` (stereo not given) came in with a logD (pH 3.0) of -0.44.

For `CC(=O)NNC(=O)c1ccccn1`, the logP was -0.59.

On to `CCCCCCCCOC(=O)c1ccccc1C(=O)OCCCCCCCC`, for which the logP stood at 5.22.

In turn, `CC(=O)OC[C@H]1O[C@@H](NC(=O)N(CCCl)N=O)[C@H](OC(C)=O)[C@@H](OC(C)=O)[C@H]1OC(C)=O` showed a logP of 1.04.

`Clc1ccc2[nH]c(CCCCCc3nc4cc(Cl)ccc4[nH]3)nc2c1`: the logP worked out at 1.98.

`NC(=O)c1nc[nH]c1N=NN(CCO)Cc1ccccc1`: the logD (pH 4.2) amounted to 0.99.

Molecule `CCC(C)=O` gave a lipophilicity (logP) of 0.5.

In turn, `O=P(c1ccccc1)(c1ccccc1)c1ccccc1` came in with a logP of 2.85.

The molecule `CCOC(=O)CON=Cc1ccc(OCCOC(=O)c2ccccc2OC)c(OC)c1` came in with a logP of 3.27.

Consider `S=P(N1CC1)(N1CC1)N1CC1`, for which the logP was determined as 0.53.

`CC(=O)Nc1ccc(F)cc1`: the logP worked out at 1.43.

For the molecule `O=[N+]([O-])c1ccc2ncccc2c1`, the logP amounted to 1.84.

Regarding `NS(=O)(=O)NCCc1ccccc1`, the logP was determined as 0.81.

As for `O=C1c2ccccc2C(=O)N1CCCCBr`, the lipophilicity (logP) was found to be 2.96.

Molecule `CCOC(=O)CC(=O)C=Cc1cccc(C)c1` displayed a lipophilicity (logP) of 2.8.

In turn, `Clc1ccc2[nH]c(CCCCc3nc4cc(Cl)ccc4[nH]3)nc2c1` registered a logP of 1.85.

In turn, `c1cc2n(n1)CCN2` registered a pH-dependent lipophilicity (logD) (pH 7.4) of -0.25.

`COC(=O)c1cccc(NC(C)=O)c1` displayed a logP of 1.46.

The molecule `Cc1ccc(C(O)c2ccccc2)cc1` (stereo not given) registered a log partition coefficient (logP) of 3.13.

Consider `CC(C)[C@H](NC(=O)C(Cc1ccccc1)NC(=O)OCc1ccccc1)C(=O)O` (stereo not given in full) (Cbz-[ξF]-Val-OH), for which the logP was determined as 2.88.

Take `C=CCOc1ccccc1`: the logP came out at 2.94.

Molecule `c1ccc2[nH]c(CCCCc3nc4ccccc4[nH]3)nc2c1` came in with a logP of 1.59.

In turn, `CN(C)/N=N/c1cc(C#N)cc(C#N)c1` had a lipophilicity (logP) of 2.18.

`O=[N+]([O-])c1ccc(OCCn2ccnc2)cc1` yielded a logP of 1.69.

Consider `C[C@@H]1C[C@H]2[C@@H]3C[C@H](F)C4=CC(=O)C=C[C@]4(C)[C@@]3(F)[C@@H](O)C[C@]2(C)[C@@]1(O)C(=O)COC(=O)C(C)(C)C`, for which the log partition coefficient (logP) amounted to 3.86.

As for `Cc1c(N(C)C)c(=O)n(-c2ccccc2)c(=O)n1C`, the logD (pH 7.4) turned out to be 1.3.

In the case of `N#Cc1cccc(C(N)=O)c1`, the logP stood at 0.52.

Consider `CCOP(=O)(OCC)Oc1ccc(SC)cc1C`, for which the logP stood at 3.21.

`N#CN=[N+]([O-])c1ccc(F)cc1` came in with a logP of 1.8.

`CC(=S)Nc1ccccc1` yielded a logP of 1.71.

`O=C(/C=C/c1ccccc1)Nc1ccccc1`: the logP was found to be 3.61.

For the molecule `CC(=O)Nc1cccc(C(C)=O)c1`, the lipophilicity (logP) came out at 1.1.

In turn, `CCOP(=O)(OCC)OCC` showed a lipophilicity (logP) of 0.8.

For `O=C(O)c1cc(=O)c2ccccc2o1`, the logD (pH 0.7) was found to be 1.63.

Take `COc1ccc(Cn2ccnc2C=Cc2ccc([N+](=O)[O-])o2)cc1`: the logP is 1.37.

Regarding `Nc1ncccn1`, the logP is -0.22.

`O=S1(=O)NC=Nc2ccc(Cl)cc21` displayed a logP of 1.07.

Take `Nc1nc(S)c2ncn(C3CC(O)C(CO)O3)c2n1` (stereo not given): under “pH 7.4”, the logD is -0.56.

For the setting “pH 13.0”, `CC(=O)Nc1cccc(OCc2cccc(/N=C(\N)N=C(N)N)c2)c1` yielded a logD of 1.82.

`CC(=O)Nc1ccc(C(C)=O)cc1` showed a logP of 1.24.

`O=C(CNC(=O)c1ccccc1)Oc1cccc(C(F)(F)F)c1` returned a lipophilicity (logP) of 3.3.

With `CC(=O)CF`, the logP was -0.39.

For `O=C(CCl)Nc1ccccc1`, the logP was determined as 1.63.

In the case of `COC(=O)CNC(=O)c1ccc(N)cc1`, the log partition coefficient (logP) was -0.23.

The molecule `CC(=O)Nc1ccc2oc(C)c(C)c(=O)c2c1` yielded a logP of 1.79.

For `CCOC(=O)/C(=C/c1c(Cl)cccc1Cl)C(C)=O`, the log partition coefficient (logP) was determined as 2.86.

The molecule `COP(=S)(NC(C)C)Oc1ccc(Cl)cc1Cl` (stereo not given) gave a logP of 4.3.

For the molecule `CNC1(c2ccccc2Cl)CCCCC1=O` (stereo not given), for the setting “pH 13.0”, the log distribution coefficient (logD) was 2.18.

Broadly, the logP is the decadic logarithm of the partition coefficient of the neutral form, usually between octanol and water. A high value points to higher lipophilicity. The term logD denotes the decadic logarithm of the distribution of all forms, ionised or not, between an organic phase and buffer at a given pH.

These data come from the SangsterLogP compilation.
